Reference: paper PMC5974779, “Prediction of Drug-Induced Hepatotoxicity Using Long-Term Stable Primary Hepatic 3D Spheroid Cultures in Chemically Defined Conditions” (Toxicological Sciences, 2018)
Like-named read-outs stand apart in the source and are kept apart here.

Assays:
[1] = ref DrugBank and Prescribers' Digital Reference database; cited from earlier work
[2] = test system: primary human hepatocytes (PHH) 3D spheroids
[3] = cited from earlier work
clinical DILI in man = settings: cited from earlier work; for Clinical DILI classification (Figure 5): structural analogue pairs, 2008 and others
PHH 2D sandwich cultures = settings: cited from earlier work
[4] = therapeutic total cmax, ref PMID
[5] = PHH 2D sandwich cultures, 100x Cmax, ref Xu 2008
[6] = clinical DILI classification in man (POS/NEG)
[7] = clinical DILI classification used in this study, Supplementary Table 2, ref Chen et al., 2011, Guo et al., 2005, O'Brien et al., 2006, Sakatis et al., 2012, Suzuki et al., 2010, Xu et al., 2008
[8] = clinical DILI classification, Supplementary Table 1, ref Chen et al., 2011, Guo et al., 2005, O'Brien et al., 2006, Sakatis et al., 2012, Suzuki et al., 2010, Xu et al., 2008
[9] = reported pattern of liver damage, Supplementary Table 2, ref literature
[10] = FDA drug labeling DILI score, ref Chen et al., 2011
[11] = clinical DILI classification, ref Xu et al. (2008)
[12] = ref Chen et al., 2011, Xu et al.

## NCCc1ccc(O)c(O)c1 [Dopamine]
[1]
  Extent of hepatic metabolism: Extensive
[2]
  Chemically defined spheroids (this study) 20x: Negative
[3]; [4]
  Cmax: 121 nM
Clinical DILI in man; in vivo
  Classified as: NEG
  Clinical DILI class (panel heading of Figure 4): DILI negative
  DILI in vivo: NEG
  FDA (0-8): 0
  Type of DILI: Non-hepatotoxic
  Xu et al. (2008): Negative
PHH 2D sandwich cultures; [5]
  2Dsw (Xu 2008) 100x: Negative

## Cc1cc(C2CCCCC2)n(O)c(=O)c1 [Ciclopirox]
[1]
  Extent of hepatic metabolism: Extensive
[2]
  Chemically defined spheroids (this study) 20x: Negative
[3]; [4]
  Cmax: 373 nM
Clinical DILI in man; [6]
  DILI in vivo: NEG
Clinical DILI in man; [7]
  Classified as: NEG
Clinical DILI in man; [8]
  DILI in vivo: NEG
Clinical DILI in man; [9]
  Type of DILI: Non-hepatotoxic
PHH 2D sandwich cultures; [5]
  2Dsw (Xu 2008) 100x: Negative

## Clc1ccc2c(c1)C(N1CCNCC1)=Nc1ccccc1O2 [Amoxapine]
[1]
  Extent of hepatic metabolism: Extensive
[2]
  Chemically defined spheroids (this study) 20x: Negative
  hepatotoxicity evaluation in CD-spheroids: not found to be toxic at any concentration tested
[3]; [4]
  Cmax: 220 nM
Clinical DILI in man; [10]
  FDA (0-8): 3
Clinical DILI in man; [6]
  DILI in vivo: NEG
Clinical DILI in man; [7]
  Classified as: NEG
Clinical DILI in man; [8]
  DILI in vivo: NEG
Clinical DILI in man; [11]
  Xu et al. (2008): Negative
Clinical DILI in man; [9]
  Type of DILI: Non-hepatotoxic
Clinical DILI in man; [12]
  Clinical DILI classification (Figure 5): DILI negative
PHH 2D sandwich cultures; [5]
  2Dsw (Xu 2008) 100x: Negative

## NNCCc1ccccc1 [Phenelzine]
[1]
  Extent of hepatic metabolism: Extensive
[2]
  Chemically defined spheroids (this study) 20x: Negative
[3]; [4]
  Cmax: 85 nM
Clinical DILI in man; in vivo
  Classified as: NEG
  Clinical DILI class (panel heading of Figure 4): DILI negative
  DILI in vivo: NEG
  FDA (0-8): 3
  Sakatis et al. (2012): Hepatotoxic
  Type of DILI: Non-hepatotoxic
  Xu et al. (2008): Negative
PHH 2D sandwich cultures; [5]
  2Dsw (Xu 2008) 100x: Negative

## CC(C)COCC(CN(Cc1ccccc1)c1ccccc1)N1CCCC1 (centres unmarked) [Bepridil]
[1]
  Extent of hepatic metabolism: Extensive
[2]
  Chemically defined spheroids (this study) 20x: Positive
[3]; [4]
  Cmax: 2000 nM
Clinical DILI in man; [6]
  DILI in vivo: POS
Clinical DILI in man; [7]
  Classified as: POS
Clinical DILI in man; [8]
  DILI in vivo: POS
Clinical DILI in man; [9]
  Type of DILI: Hepatocellular injury
PHH 2D sandwich cultures; [5]
  2Dsw (Xu 2008) 100x: Positive

## Sc1ncnc2nc[nH]c12 [Mercaptopurine]
[1]
  Extent of hepatic metabolism: Extensive
[2]
  Chemically defined spheroids (this study) 20x: Positive
[3]; [4]
  Cmax: 480 nM
Clinical DILI in man; in vivo
  Classified as: POS
  Clinical DILI class (panel heading of Figure 4): Severe DILI
  DILI in vivo: POS
  FDA (0-8): 8
  FDA (Severity): most DILI concern
  Guo et al. (2005): 3
  O'Brien et al. (2003): Severely
  Sakatis et al. (2012): Hepatotoxic
  Suzuki et al. (2010): 2
  Type of DILI: Cholestatic injury or Mixed hepatitis
  Xu et al. (2008): Positive
PHH 2D sandwich cultures; [5]
  2Dsw (Xu 2008) 100x: Negative

## Nc1cc(-c2ccncc2)c[nH]c1=O [Amrinone]
[1]
  Extent of hepatic metabolism: Extensive
[2]
  Chemically defined spheroids (this study) 20x: Negative
[3]; [4]
  Cmax: 13800 nM
Clinical DILI in man; [10]
  FDA (0-8): 5
Clinical DILI in man; [6]
  DILI in vivo: POS
Clinical DILI in man; [7]
  Classified as: POS
Clinical DILI in man; [8]
  DILI in vivo: POS
Clinical DILI in man; [11]
  Xu et al. (2008): Positive
Clinical DILI in man; [9]
  Type of DILI: Hepatocellular injury
PHH 2D sandwich cultures; [5]
  2Dsw (Xu 2008) 100x: Negative

## Cc1ncc(CO)c(CO)c1O [Pyridoxine]
[1]
  Extent of hepatic metabolism: Extensive
[2]
  Chemically defined spheroids (this study) 20x: Negative
[3]; [4]
  Cmax: 122 nM
Clinical DILI in man; in vivo
  Classified as: NEG
  Clinical DILI class (panel heading of Figure 4): DILI negative
  DILI in vivo: NEG
  FDA (0-8): 0
  O'Brien et al. (2003): Non-toxic
  Type of DILI: Non-hepatotoxic
  Xu et al. (2008): Negative
PHH 2D sandwich cultures; [5]
  2Dsw (Xu 2008) 100x: Negative

## CN(C)C(=O)Oc1cc(OC(=O)N(C)C)cc(C(O)CNC(C)(C)C)c1 (centres unmarked) [Bambuterol]
[1]
  Extent of hepatic metabolism: Extensive
[2]
  Chemically defined spheroids (this study) 20x: Negative
[3]; [4]
  Cmax: 10 nM
Clinical DILI in man; [6]
  DILI in vivo: NEG
Clinical DILI in man; [7]
  Classified as: NEG
Clinical DILI in man; [8]
  DILI in vivo: NEG
Clinical DILI in man; [9]
  Type of DILI: Non-hepatotoxic
PHH 2D sandwich cultures; [5]
  2Dsw (Xu 2008) 100x: Negative

## C[C@H](CCC(=O)O)[C@H]1CC[C@H]2[C@@H]3[C@H](O)C[C@@H]4C[C@H](O)CC[C@]4(C)[C@H]3CC[C@]12C [Chenodiol]
[1]
  Extent of hepatic metabolism: Extensive
[2]
  Chemically defined spheroids (this study) 20x: Positive
[3]; [4]
  Cmax: 8000 nM
Clinical DILI in man; [6]
  DILI in vivo: POS
Clinical DILI in man; [7]
  Classified as: POS
Clinical DILI in man; [8]
  DILI in vivo: POS
Clinical DILI in man; [9]
  Type of DILI: Cholestatic injury
PHH 2D sandwich cultures; [5]
  2Dsw (Xu 2008) 100x: Positive

## NCC1(CC(=O)O)CCCCC1 [Gabapentin]
[1]
  Extent of hepatic metabolism: Minimal
[2]
  Chemically defined spheroids (this study) 20x: Negative
[3]; human, in vivo
  Cmax: 14400 nM
Clinical DILI in man; DILI classification score, ref Suzuki et al. (2010)
  Suzuki et al. (2010): 1
Clinical DILI in man; [10]
  FDA (0-8): 3
Clinical DILI in man; [6]
  DILI in vivo: NEG
Clinical DILI in man; [7]
  Classified as: NEG
Clinical DILI in man; [8]
  DILI in vivo: NEG
Clinical DILI in man; [11]
  Xu et al. (2008): Negative
Clinical DILI in man; [9]
  Type of DILI: Non-hepatotoxic
PHH 2D sandwich cultures
  2Dsw (Xu 2008) 100x: Negative

## Nc1ccc(/N=N/c2ccccc2)c(N)n1 [Phenazopyridine]
[1]
  Extent of hepatic metabolism: Moderate
[2]
  Chemically defined spheroids (this study) 20x: Negative
[3]; [4]
  Cmax: 110 nM
Clinical DILI in man; [6]
  DILI in vivo: POS
Clinical DILI in man; [7]
  Classified as: POS
Clinical DILI in man; [8]
  DILI in vivo: POS
Clinical DILI in man; [9]
  Type of DILI: Hepatocellular injury
PHH 2D sandwich cultures; [5]
  2Dsw (Xu 2008) 100x: Negative

## COc1cc(NC(C)CCCN)c2ncccc2c1 (centres unmarked) [Primaquine]
[1]
  Extent of hepatic metabolism: Extensive
[2]
  Chemically defined spheroids (this study) 20x: Negative
  hepatotoxicity evaluation in CD-spheroids: did not cause apparent toxicity at any concentration tested
[3]; [4]
  Cmax: 1080 nM
Clinical DILI in man; FDA drug labeling DILI concern, ref Chen et al., 2011
  FDA (Severity): no DILI concern
Clinical DILI in man; [10]
  FDA (0-8): 0
Clinical DILI in man; [6]
  DILI in vivo: NEG
Clinical DILI in man; [7]
  Classified as: NEG
Clinical DILI in man; [8]
  DILI in vivo: NEG
Clinical DILI in man; [11]
  Xu et al. (2008): Negative
Clinical DILI in man; [9]
  Type of DILI: Non-hepatotoxic
Clinical DILI in man; [12]
  Clinical DILI classification (Figure 5): DILI negative
PHH 2D sandwich cultures; [5]
  2Dsw (Xu 2008) 100x: Negative

## CCC1(c2ccc(N)cc2)CCC(=O)NC1=O (centres unmarked) [Aminoglutethimide]
[1]
  Extent of hepatic metabolism: Moderate
[2]
  Chemically defined spheroids (this study) 20x: Negative
[3]; [4]
  Cmax: 25400 nM
Clinical DILI in man; [6]
  DILI in vivo: NEG
Clinical DILI in man; [7]
  Classified as: NEG
Clinical DILI in man; [8]
  DILI in vivo: NEG
Clinical DILI in man; [9]
  Type of DILI: Non-hepatotoxic
PHH 2D sandwich cultures; [5]
  2Dsw (Xu 2008) 100x: Negative

## CC(C)NCC(O)c1ccc(O)c(O)c1 (centres unmarked) [Isoproterenol]
[1]
  Extent of hepatic metabolism: Moderate
[2]
  Chemically defined spheroids (this study) 20x: Negative
[3]; [4]
  Cmax: 2020 nM
Clinical DILI in man; in vivo
  Classified as: NEG
  Clinical DILI class (panel heading of Figure 4): DILI negative
  DILI in vivo: NEG
  FDA (0-8): 0
  O'Brien et al. (2003): Non-toxic
  Type of DILI: Non-hepatotoxic
  Xu et al. (2008): Negative
PHH 2D sandwich cultures; [5]
  2Dsw (Xu 2008) 100x: Negative
